Test results: patent US20100055066A1, “Agent for prophylactic and/or therapeutic treatment of diabetes” (priority 2004, published 2010)

What was measured:
Assay type in all cases: in vivo
cyp7α = assay: Liver cyp7α gene expression by quantitative PCR after FXR agonist (Example 2); settings: KKAy mice, 10 mg/kg orally for 4 days, liver on 5th day, FIG. 6-1
Description: (§1) An FXR agonist, GW-4064 (J. Med. Chem., vol. 43(16), pp. 2971-2974, 2000), was orally administered in a dosage of 10 mg/kg for 4 days. On the 5th day, mice were dissected to isolate the livers.

SHP = assay: Liver SHP gene expression by quantitative PCR after FXR agonist (Example 2); settings: KKAy mice, 10 mg/kg orally for 4 days, liver on 5th day, FIG. 6-2
Description: as §1

PEPCK = assay: Liver PEPCK gene expression by quantitative PCR after FXR agonist (Example 2); settings: KKAy mice, 10 mg/kg orally for 4 days, liver on 5th day, FIG. 7
Description: as §1

expression level of the gene for cyp7α in the liver compared with control group (cyp7α): decreased
SMILES: CC(C)c1onc(-c2c(Cl)cccc2Cl)c1COc1ccc(/C=C/c2cccc(C(=O)O)c2)c(Cl)c1 [GW-4064]
expression level of the gene for SHP in the liver compared with control group (SHP): increased
expression level of the gene for PEPCK in the liver compared with control group (PEPCK): increased
